These results are taken from the SangsterLogP compilation.

The logP is the decadic logarithm of the partition coefficient of the neutral form, usually between octanol and water. Read a high logP as higher lipophilicity. With `c1ccc2c(c1)Oc1ccccc1O2`, the logP stood at 4.19. `c1ccc2c(c1)Sc1ccccc1S2` displayed a logP of 4.47. `c1ccc2c(c1)Cc1ccccc1O2` yielded a logP of 4.23. `c1ccc2sccc2c1` came in with a logP of 3.26. The compound `c1ccc2c(c1)COC2` had a logP of 1.63. The compound `c1ccc2cc3c(cc2c1)sc1ccccc13` returned a lipophilicity (logP) of 5.07. `c1ccc(-c2ccccn2)nc1` returned a logP of 1.67. For `c1csc(-c2cccs2)c1`, the logP stood at 3.75.

This is another data set of the same source.
`c1cnc2c(c1)ccc1cccnc12` displayed a logP of 1.93. `c1ccc2cc3c(ccc4c5ccccc5ccc34)cc2c1` registered a logP of 7.11. Consider `c1ccc2c(c1)cc1ccc3cccc4c5ccccc5c2c1c34`, for which the logP was determined as 7.71. `c1ccc2occc2c1` returned a logP of 2.53. Compound `c1ccc2c(c1)c1ccccc1c1c3ccccc3c3ccccc3c21` registered a logP of 8.39. Turning to `c1ccc(-c2cc3cccnc3c3ncccc23)cc1`, the logP came to 3. Compound `c1cc2ccc3ccc4ccc5cccc6c(c1)c2c3c4c56` displayed a logP of 7.04. `c1ccc(-c2cccc(-c3ccccn3)n2)nc1`: the logP turned out to be 1.96. As to `c1cnccn1`, the logP is -0.05.

On to `c1ccc2cc3c(cc2c1)oc1ccccc13`, for which the logP was 5.08.

`c1ccc2c(c1)ccc1c2ccc2ccc3ccccc3c21` had a logP of 7.11. In turn, `c1ccc2c(c1)CCO2` showed a logP of 2.26. Consider `c1ccc2c(c1)ccc1c3ccc4ccccc4c3[nH]c21`, for which the logP is 5.89. Turning to `c1cnc2c(c1)ccc1ncccc12`, the logP came to 1.93. Still for that read-out and setting: the value for `c1ccc2c(c1)ccc1c2ccc2c3ccccc3ccc21` was 7.11; that for `c1ccc(-c2cccc(-c3ccccc3)n2)cc1` was 4.6; that for `c1cc(-c2ccncc2)ccn1` was 1.33. Still for that read-out and setting: the value for `c1ccc2cc3cc4cc5ccccc5cc4cc3cc2c1` was 7.11; that for `c1ccc2c(c1)ccc1cccnc12` was 3.25; that for `c1ccc2c(c1)ccc1ncccc12` was 3.25.

Take `c1ccc2c(c1)c1ccccc1c1ccccc21`: the logP worked out at 5.84. The compound `c1ccc(-c2c3ccccc3c(-c3ccccc3)c3ccccc23)cc1` returned a logP of 8.46. In turn, `c1ccc2cc3c4ccccc4c4ccccc4c3cc2c1` returned a logP of 7.11. In turn, `c1cc2ccc3cc4cccc5ccc6cc(c1)c2c3c6c54` yielded a logP of 7.04. `C1=Cc2ccc3c4c(ccc1c24)C=C3` showed a logP of 5.07.

With `c1cc2c3c(c1)ccc1ccc4cccc-2c4c13`, the lipophilicity (logP) turned out to be 6.63. As for `c1ccc2c(c1)c1cccc3ccc4cccc2c4c31`, the logP worked out at 6.44.
